Measurements from the supplement of paper PMC10307832.

Compound: CCN1CCC(CC1)N2C=C(N=N2)CNC3=CC4=C(C(=CN=C4C(=C3)Cl)C#N)NC5=CC(=C(C=C5)F)Cl [KIN001-266] + Cc1cc(Nc2cc(N3CCN(C)CC3)nc(Sc3ccc(NC(=O)C4CC4)cc3)n2)n[nH]1 [Tozasertib] (partner 0.1 µM)
Test: relative viability (nuclei count vs DMSO), 5 days (fraction); higher = more cells survive
Procedure, shortened: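 For relative viability, nuclei counts in treated wells were divided by those in vehicle wells. Lung cancer cell lines had been pin-tool dosed in 1536-well plates the day after seeding and cultured for 5 days, then fixed and stained in one step (final 0.05% Triton X-100, 1% formaldehyde, 1 ug/ml Hoechst) and imaged at 4×. Doses were one drug alone or a fixed anchor-drug dose plus five library-drug doses (not always all listed) in √10 steps, and values are duplicate-plate medians.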

| Cell Line | relative viability (first compound 0.08 µM) | relative viability (first compound 0.253 µM) | relative viability (first compound 0.8 µM) | relative viability (first compound 2.53 µM) | relative viability (first compound 8 µM) |
| --- | --- | --- | --- | --- | --- |
| NCI-H661 | 0.364 | 0.377 | 0.373 | 0.353 | 0.353 |
| NCI-H727 | 0.759 | 0.584 | 0.552 | 0.715 | 0.467 |
| NCI-H838 | 0.266 | 0.299 | 0.257 | 0.254 | 0.22 |
| NCI-H1355 | 0.62 | 0.593 | 0.515 | 0.513 | 0.506 |
| NCI-H1395 | 0.808 | 0.779 | 0.786 | 0.724 | 0.677 |
| NCI-H1437 | 0.425 | 0.366 | 0.393 | 0.38 | 0.264 |
| NCI-H1648 | 0.711 | 0.513 | 0.436 | 0.558 | 0.485 |
| NCI-H1650 | 0.564 | 0.406 | 0.372 | 0.263 | 0.162 |
| NCI-H1651 | 0.782 | 0.591 | 0.51 | 0.78 | 0.396 |
| NCI-H1666 | 0.586 | 0.642 | 0.605 | 0.572 | 0.486 |
| NCI-H1734 | 0.256 | 0.295 | 0.279 | 0.232 | 0.243 |
| NCI-H1755 | 0.629 | 0.541 | 0.583 | 0.525 | 0.522 |
| NCI-H1793 | 0.325 | 0.416 | 0.303 | 0.323 | 0.272 |
| NCI-H1915 | 0.447 | 0.418 | 0.396 | 0.422 | 0.369 |
| NCI-H1944 | 0.25 | 0.264 | 0.241 | 0.235 | 0.254 |
| NCI-H1975 | 0.821 | 0.776 | 0.762 | 0.699 | 0.505 |
| NCI-H1993 | 0.596 | 0.563 | 0.574 | 0.567 | 0.553 |
| NCI-H2009 | 0.788 | 0.704 | 0.808 | 0.674 | 0.386 |

| Cell Line | relative viability (first compound 0.08 µM) | relative viability (first compound 0.253 µM) | relative viability (first compound 0.8 µM) | relative viability (first compound 2.53 µM) | relative viability (first compound 8 µM) |
| --- | --- | --- | --- | --- | --- |
| NCI-H2023 | 0.39 | 0.341 | 0.419 | 0.292 | 0.184 |
| NCI-H2085 | 0.911 | 0.858 | 0.83 | 0.793 | 0.765 |
| NCI-H2087 | 0.206 | 0.246 | 0.23 | 0.175 | 0.155 |
| NCI-H2126 | 0.8 | 0.857 | 0.85 | 0.84 | 0.78 |
| NCI-H2170 | 0.802 | 0.715 | 0.623 | 0.785 | 0.709 |
| NCI-H2228 | 0.312 | 0.255 | 0.266 | 0.192 | 0.264 |
| NCI-H2342 | 0.524 | 0.506 | 0.584 | 0.627 | 0.414 |
| NCI-H2347 | 0.521 | 0.5 | 0.558 | 0.518 | 0.367 |
| NCI-H2405 | 0.763 | 0.792 | 0.746 | 0.684 | 0.455 |
| NCI-H3122 | 0.428 | 0.389 | 0.389 | 0.378 | 0.37 |
| PC-3 [JPC-3] | 0.844 | 0.916 | 0.774 | 0.815 | 0.788 |
| PC-14 | 0.577 | 0.655 |  | 0.589 | 0.432 |
| RERF-LC-KJ | 0.499 | 0.551 | 0.557 | 0.359 | 0.299 |
| SK-LU-1 | 0.403 | 0.375 | 0.322 | 0.307 | 0.286 |
| SK-MES-1 | 0.944 | 0.869 | 0.934 | 0.756 | 0.66 |
| SW 900 | 0.741 | 0.584 | 0.567 | 0.482 | 0.491 |
| SW 1573 | 0.219 | 0.186 | 0.162 | 0.184 | 0.224 |
| UMC-11 | 0.209 | 0.215 | 0.213 | 0.219 | 0.213 |
